Measurements reported in US20230042653A1, “COMBINATIONS” (Recurium IP Holdings, LLC, priority 2019, published 2023).

Test system: MCF-7 xenograft tumor
Experiment: MCF-7 xenograft tumor model, combination study
Type: in vivo
Settings: single agent, FIG. 3

SMILES | TGI (dose not printed for the single agent) [%] | TGI (10 mg/kg) [%]
C=CCn1c(=O)c2cnc(Nc3ccc(N4CCN(C)CC4)cc3)nc2n1-c1cccc(C(C)(C)O)n1 [Compound 1] | 122.8 | –
C[C@@H]1Cc2c([nH]c3ccccc23)[C@@H](c2c(F)cc(/C=C/C(=O)O)cc2F)N1C12CC(C1)C2 [Compound (A)] | – | 128.3
